In US10112937B2, “P2X7 modulators and methods of use” (Janssen Pharmaceutica NV, priority 2013, dated 2018):

Target: human P2X7 (Homo sapiens (Human), UniProt Q99572)
Test: P2X7 antagonism in human PBMCs (IL-1β release after LPS + Bz-ATP, ELISA)
Format: cell-based
Conditions: human PBMCs; for PBMC 1 μM (% control): test compound 1 μM

Sequence of human P2X7 (Q99572 whole entry): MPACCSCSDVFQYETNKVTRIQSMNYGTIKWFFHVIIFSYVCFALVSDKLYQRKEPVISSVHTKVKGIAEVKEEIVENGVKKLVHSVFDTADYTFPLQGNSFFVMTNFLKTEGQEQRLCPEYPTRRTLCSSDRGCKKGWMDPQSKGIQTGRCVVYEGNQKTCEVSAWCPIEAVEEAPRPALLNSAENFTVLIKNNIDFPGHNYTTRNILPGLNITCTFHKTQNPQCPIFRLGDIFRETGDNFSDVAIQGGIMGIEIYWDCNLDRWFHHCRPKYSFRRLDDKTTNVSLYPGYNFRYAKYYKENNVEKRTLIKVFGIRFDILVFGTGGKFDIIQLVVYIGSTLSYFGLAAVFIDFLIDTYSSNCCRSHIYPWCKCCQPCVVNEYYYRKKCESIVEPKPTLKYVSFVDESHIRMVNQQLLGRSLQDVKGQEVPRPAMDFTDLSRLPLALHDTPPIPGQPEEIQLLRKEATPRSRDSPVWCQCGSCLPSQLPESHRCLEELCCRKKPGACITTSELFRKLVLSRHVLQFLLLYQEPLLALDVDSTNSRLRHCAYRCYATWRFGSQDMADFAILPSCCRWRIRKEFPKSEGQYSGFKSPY

SMILES	PBMC 10 μM (% control) (test compound 10 μM)	PBMC 1 μM (% control)	also measured
Cc1ccnc(-n2nnc3c2CCN(C(=O)c2cccc(OC(F)(F)F)c2)[C@@H]3C)c1 (single isomer, unassigned) [Example 376, (R*)-(4-methyl-1-(4-methylpyridin-2-yl)-6,7-dihydro-1H-[1,2,3]triazolo[4,5-c]pyridin-5(4H)-yl)(3-(trifluoromethoxy)phenyl)methanone]	96.3 % control		
C[C@H]1c2nnn(-c3cccc(C(F)(F)F)n3)c2CCN1C(=O)c1cccc(C(F)(F)F)c1Cl (single isomer, unassigned) [Example 380, (S*)-(2-chloro-3-(trifluoromethyl)phenyl)(4-methyl-1-(6-(trifluoromethyl)pyridin-2-yl)-6,7-dihydro-1H-[1,2,3]triazolo[4,5-c]pyridin-5(4H)-yl)methanone]	113.7 % control		
Cc1cccc(-n2nnc3c2CCN(C(=O)c2cccc(C(F)(F)F)c2F)[C@@H]3C)n1 (single isomer, unassigned) [Example 386, (R*)-(2-fluoro-3-(trifluoromethyl)phenyl)(4-methyl-1-(6-methylpyridin-2-yl)-6,7-dihydro-1H-[1,2,3]triazolo[4,5-c]pyridin-5(4H)-yl)methanone]	107.5 % control		
Cc1cccc(-n2nnc3c2CCN(C(=O)c2cccc(Cl)c2Cl)[C@@H]3C)n1 (single isomer, unassigned) [Example 389, (R*)-(2,3-dichlorophenyl)(4-methyl-1-(6-methylpyridin-2-yl)-6,7-dihydro-1H-[1,2,3]triazolo[4,5-c]pyridin-5(4H)-yl)methanone]	88.9 % control		
Cc1cccc(-n2nnc3c2CCN(C(=O)c2cccc(Cl)c2Cl)[C@H]3C)n1 (single isomer, unassigned) [Example 390, (S*)-(2,3-dichlorophenyl)(4-methyl-1-(6-methylpyridin-2-yl)-6,7-dihydro-1H-[1,2,3]triazolo[4,5-c]pyridin-5(4H)-yl)methanone]	6.5 % control		
Cc1ccnc(-n2nnc3c2CCN(C(=O)c2cccc(Cl)c2Cl)[C@@H]3C)n1 (single isomer, unassigned) [Example 391, (R*)-(2,3-dichlorophenyl)(4-methyl-1-(4-methylpyrimidin-2-yl)-6,7-dihydro-1H-[1,2,3]triazolo[4,5-c]pyridin-5(4H)-yl)methanone]	112.1 % control		
Cc1ccnc(-n2nnc3c2CCN(C(=O)c2cccc(Cl)c2Cl)[C@@H]3C)c1 (single isomer, unassigned) [Example 394, (R*)-(2,3-dichlorophenyl)(4-methyl-1-(4-methylpyridin-2-yl)-6,7-dihydro-1H-[1,2,3]triazolo[4,5-c]pyridin-5(4H)-yl)methanone]	6.2 % control		
Cc1ccnc(-n2nnc3c2CCN(C(=O)c2cccc(C(F)(F)F)c2Cl)[C@H]3C)n1 (single isomer, unassigned) [Example 439, (S*)-(2-chloro-3-(trifluoromethyl)phenyl)(4-methyl-1-(4-methylpyrimidin-2-yl)-6,7-dihydro-1H-[1,2,3]triazolo[4,5-c]pyridin-5(4H)-yl)methanone]			PBMC 10 μM (% control) (10 μM test compound, LPS + Bz-ATP): 1.2 % control
O=C(c1cccc(Cl)c1Cl)N1CCc2c(ncn2-c2ccccc2)C1 [Example 3, (2,3-Dichlorophenyl)(1-phenyl-6,7-dihydro-1H-imidazo[4,5-c]pyridin-5(4H)-yl)methanone]		23.0 % control	
CC1c2ncn(-c3ccc(F)cc3)c2CCN1C(=O)c1cccc(C(F)(F)F)c1F (stereo not drawn) [Example 20, (2-Fluoro-3-(trifluoromethyl)phenyl)(1-(4-fluorophenyl)-4-methyl-6,7-dihydro-1H-imidazo[4,5-c]pyridin-5(4H)-yl)methanone]	8.6 % control		
O=C(c1cccc(C(F)(F)F)c1Cl)N1CCc2c(nc(C(F)(F)F)n2-c2ccccc2)C1 [Example 38, (2-Chloro-3-(trifluoromethyl)phenyl)(1-phenyl-2-(trifluoromethyl)-6,7-dihydro-1H-imidazo[4,5-c]pyridin-5(4H)-yl)methanone]	−0.3 % control		
O=C(c1cccc2c1OC(F)(F)O2)N1CCc2c(ncn2-c2ccccc2)C1 [Example 50, 5-[(2,2-Difluoro-1,3-benzodioxol-4-yl)carbonyl]-1-phenyl-4,5,6,7-tetrahydro-1H-imidazo[4,5-c]pyridine]		96.0 % control	
O=C(c1cccc(Cl)c1Cl)N1CCc2c(nc(C(F)(F)F)n2-c2ccccc2)C1 [Example 58, 5-[(2,3-Dichlorophenyl)carbonyl]-1-phenyl-2-(trifluoromethyl)-4,5,6,7-tetrahydro-1H-imidazo[4,5-c]pyridine]	−2.0 % control		
O=C(c1cccc(Cl)c1Cl)N1CCc2c(ncn2-c2ccn[nH]2)C1 [Example 60, 5-[(2,3-Dichlorophenyl)carbonyl]-1-(1H-pyrazol-5-yl)-4,5,6,7-tetrahydro-1H-imidazo[4,5-c]pyridine]	8.4 % control		
O=C(c1cccc(Cl)c1Cl)N1CCc2c(nnn2-c2ccccc2)C1 [Example 62, 5-[(2,3-Dichlorophenyl)carbonyl]-1-phenyl-4,5,6,7-tetrahydro-1H-[1,2,3]triazolo[4,5-c]pyridine]		5.2 % control	

More lines, main results first:

PBMC 10 μM (% control) (test compound 10 μM)	PBMC 1 μM (% control)	SMILES	also measured
87.3 % control		Cc1cc(-n2nnc3c2CCN(C(=O)c2cccc(C(F)(F)F)c2Cl)[C@H]3C)ncc1F (single isomer, unassigned) [Example 383, (S*)-(2-chloro-3-(trifluoromethyl)phenyl)(1-(5-fluoro-4-methylpyridin-2-yl)-4-methyl-6,7-dihydro-1H-[1,2,3]triazolo[4,5-c]pyridin-5(4H)-yl)methanone]	
−3.7 % control		O=C(c1cccc(Cl)c1Cl)N1CCc2c(ncn2-c2ccccn2)C1 [Example 4, (2,3-Dichlorophenyl)(1-(pyridin-2-yl)-6,7-dihydro-1H-imidazo[4,5-c]pyridin-5(4H)-yl)methanone]	
3.7 % control		CC1c2ncn(-c3ccc(F)cn3)c2CCN1C(=O)c1cccc(C(F)(F)F)c1Cl (stereo not drawn) [Example 11, (2-Chloro-3-(trifluoromethyl)phenyl)(1-(5-fluoropyridin-2-yl)-4-methyl-6,7-dihydro-1H-imidazo[4,5-c]pyridin-5(4H)-yl)methanone]	
	6.5 % control	CC1c2ncn(-c3ccccn3)c2CCN1C(=O)c1cccc(C(F)(F)F)c1Cl (stereo not drawn) [Example 17, (2-Chloro-3-(trifluoromethyl)phenyl)(4-methyl-1-(pyridin-2-yl)-6,7-dihydro-1H-imidazo[4,5-c]pyridin-5(4H)-yl)methanone]	
	5.3 % control	CC1c2ncn(-c3ccc(F)cc3)c2CCN1C(=O)c1cccc(C(F)(F)F)c1Cl (stereo not drawn) [Example 18, (2-Chloro-3-(trifluoromethyl)phenyl)(1-(4-fluorophenyl)-4-methyl-6,7-dihydro-1H-imidazo[4,5-c]pyridin-5(4H)-yl)methanone]	
	87.0 % control	O=C(c1cccc(C(F)(F)F)c1Cl)N1CCc2c(ncn2-c2ccccc2)C1CO (stereo not drawn) [Example 30, (5-{[2-Chloro-3-(trifluoromethyl)phenyl]carbonyl}-1-phenyl-4,5,6,7-tetrahydro-1H-imidazo[4,5-c]pyridin-4-yl)methanol]	
−9.1 % control		Cc1nc2c(n1-c1ccccc1)CCN(C(=O)c1cccc(C(F)(F)F)c1Cl)C2 [Example 37, (2-Chloro-3-(trifluoromethyl)phenyl)(2-methyl-1-phenyl-6,7-dihydro-1H-imidazo[4,5-c]pyridin-5(4H)-yl)methanone]	
	8.6 % control	O=C(c1cccc(C(F)(F)F)c1Cl)N1C=Cc2c(ncn2-c2cnccn2)C1 [Example 54, 5-{[2-Chloro-3-(trifluoromethyl)phenyl]carbonyl}-1-pyrazin-2-yl-4,5-dihydro-1H-imidazo[4,5-c]pyridine]	
5.8 % control		O=C(c1cccc(C(F)(F)F)c1Cl)N1CCc2c(nnn2-c2ncccn2)C1 [Example 65, 5-{[2-Chloro-3-(trifluoromethyl)phenyl]carbonyl}-1-pyrimidin-2-yl-4,5,6,7-tetrahydro-1H-[1,2,3]triazolo[4,5-c]pyridine]	
6.8 % control		O=C(c1cccc(C(F)(F)F)c1F)N1CCc2c(nnn2-c2cnccn2)C1 [Example 69, 5-{[2-Fluoro-3-(trifluoromethyl)phenyl]carbonyl}-1-pyrazin-2-yl-4,5,6,7-tetrahydro-1H-[1,2,3]triazolo[4,5-c]pyridine]	
	−5.7 % control	CC1c2nnn(-c3cnccn3)c2C=CN1C(=O)c1cccc(C(F)(F)F)c1Cl (stereo not drawn) [Example 72, 5-{[2-Chloro-3-(trifluoromethyl)phenyl]carbonyl}-4-methyl-1-pyrazin-2-yl-4,5-dihydro-1H-[1,2,3]triazolo[4,5-c]pyridine]	
	4.3 % control	CC1c2nnn(-c3cnccn3)c2CCN1C(=O)c1cccc(C(F)(F)F)c1Cl (stereo not drawn) [Example 73, 5-{[2-Chloro-3-(trifluoromethyl)phenyl]carbonyl}-4-methyl-1-pyrazin-2-yl-4,5,6,7-tetrahydro-1H-[1,2,3]triazolo[4,5-c]pyridine]	
	1.6 % control	O=C(c1cccc(C(F)(F)F)c1Cl)N1C=Cc2c(nnn2-c2cnccn2)C1c1ccccc1 (stereo not drawn) [Example 76, 5-{[2-Chloro-3-(trifluoromethyl)phenyl]carbonyl}-4-phenyl-1-pyrazin-2-yl-4,5-dihydro-1H-[1,2,3]triazolo[4,5-c]pyridine]	
4.6 % control		CC1c2nnn(-c3ncccn3)c2CCN1C(=O)c1cccc(C(F)(F)F)c1Cl (stereo not drawn) [Example 80, 5-{[2-Chloro-3-(trifluoromethyl)phenyl]carbonyl}-4-methyl-1-pyrimidin-2-yl-4,5,6,7-tetrahydro-1H-[1,2,3]triazolo[4,5-c]pyridine]	
5.9 % control		CC1c2nnn(-c3ccc(F)cc3)c2C=CN1C(=O)c1cccc(C(F)(F)F)c1Cl (stereo not drawn) [Example 81, 5-{[2-Chloro-3-(trifluoromethyl)phenyl]carbonyl}-1-(4-fluorophenyl)-4-methyl-4,5-dihydro-1H-[1,2,3]triazolo[4,5-c]pyridine]	
